Calls of active or inactive are those of the source. The calls are words filed in the database; no cut-off is given here.

Experiment [1] addresses Ubiquitin carboxyl-terminal hydrolase 9X (Homo sapiens) (UniProt Q93008). As to the kind of experiment: Inhibition of USP9X (unknown origin) using Ub-AFC as substrate assessed as substrate cleavage at 1 to 10 uM preincubated for 15 mins followed by substrate addition and measured after 1 hrs by fluorescence assay. The following applies: dose 1-10 µM, time 75.0 min.
For experiment [2], the target named is T1, Ubiquitin carboxyl-terminal hydrolase 8 (Homo sapiens) (UniProt P40818).
T1 sequence (whole entry): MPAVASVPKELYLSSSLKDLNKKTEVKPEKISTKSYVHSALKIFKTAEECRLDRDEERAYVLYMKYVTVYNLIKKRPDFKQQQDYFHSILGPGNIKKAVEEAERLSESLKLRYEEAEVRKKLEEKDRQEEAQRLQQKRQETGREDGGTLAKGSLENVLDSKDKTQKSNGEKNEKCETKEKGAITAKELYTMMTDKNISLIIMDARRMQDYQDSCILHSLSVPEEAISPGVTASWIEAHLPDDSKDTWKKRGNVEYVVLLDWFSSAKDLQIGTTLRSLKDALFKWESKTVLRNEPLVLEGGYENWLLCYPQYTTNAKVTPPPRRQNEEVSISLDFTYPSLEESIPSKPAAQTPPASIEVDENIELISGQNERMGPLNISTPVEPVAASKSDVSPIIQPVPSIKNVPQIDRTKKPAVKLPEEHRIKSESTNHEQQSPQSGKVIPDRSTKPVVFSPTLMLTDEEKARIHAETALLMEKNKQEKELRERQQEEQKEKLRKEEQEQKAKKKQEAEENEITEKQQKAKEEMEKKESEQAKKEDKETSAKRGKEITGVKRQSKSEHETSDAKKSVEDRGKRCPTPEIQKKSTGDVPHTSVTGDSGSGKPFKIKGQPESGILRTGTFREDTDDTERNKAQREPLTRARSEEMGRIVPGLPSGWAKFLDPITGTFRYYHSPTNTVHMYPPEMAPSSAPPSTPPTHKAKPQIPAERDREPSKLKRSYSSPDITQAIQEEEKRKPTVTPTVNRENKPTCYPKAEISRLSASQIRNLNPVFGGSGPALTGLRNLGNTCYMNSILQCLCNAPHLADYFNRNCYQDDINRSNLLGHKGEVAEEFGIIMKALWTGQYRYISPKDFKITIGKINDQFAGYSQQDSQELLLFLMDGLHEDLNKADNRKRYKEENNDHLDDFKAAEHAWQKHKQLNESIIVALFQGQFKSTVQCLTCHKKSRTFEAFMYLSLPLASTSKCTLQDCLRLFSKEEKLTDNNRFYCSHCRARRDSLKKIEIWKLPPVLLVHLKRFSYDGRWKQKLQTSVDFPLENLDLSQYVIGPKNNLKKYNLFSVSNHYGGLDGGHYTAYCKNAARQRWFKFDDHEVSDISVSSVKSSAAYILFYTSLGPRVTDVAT
Briefly: Inhibition of USP8 (unknown origin) using Ub-AFC as substrate assessed as substrate cleavage at 1 to 10 uM preincubated for 15 mins followed by substrate addition and measured after 1 hrs by fluorescence assay. To be noted: dose 1-10 µM, time 75.0 min.

In experiment [3] the target is T2, Ubiquitin carboxyl-terminal hydrolase 7 (Homo sapiens, UniProt Q93009). The following applies: CHP-212, dose 0-1000 nM, time 24.0 hrs.
Experiment [4] deals with T2, Ubiquitin carboxyl-terminal hydrolase 7. The following applies: dose 50.0 µM.
Description: Induction of thermal stabilization of USP7 (unknown origin) assessed as change in melting temperature at 50 uM incubated under 35 to 60 degreeC by fluorescence based thermal shift assay
Experiment [5] shares this target. To be noted: CHP-212, dose 0-1000 nM, time 24.0 hrs. The source holds these as a separate data set.
Experiment [6] shares this target. The following applies: MM1.S, dose 0-1000 nM, time 24.0 hrs.

T2 sequence (Q93009 whole entry, looked up): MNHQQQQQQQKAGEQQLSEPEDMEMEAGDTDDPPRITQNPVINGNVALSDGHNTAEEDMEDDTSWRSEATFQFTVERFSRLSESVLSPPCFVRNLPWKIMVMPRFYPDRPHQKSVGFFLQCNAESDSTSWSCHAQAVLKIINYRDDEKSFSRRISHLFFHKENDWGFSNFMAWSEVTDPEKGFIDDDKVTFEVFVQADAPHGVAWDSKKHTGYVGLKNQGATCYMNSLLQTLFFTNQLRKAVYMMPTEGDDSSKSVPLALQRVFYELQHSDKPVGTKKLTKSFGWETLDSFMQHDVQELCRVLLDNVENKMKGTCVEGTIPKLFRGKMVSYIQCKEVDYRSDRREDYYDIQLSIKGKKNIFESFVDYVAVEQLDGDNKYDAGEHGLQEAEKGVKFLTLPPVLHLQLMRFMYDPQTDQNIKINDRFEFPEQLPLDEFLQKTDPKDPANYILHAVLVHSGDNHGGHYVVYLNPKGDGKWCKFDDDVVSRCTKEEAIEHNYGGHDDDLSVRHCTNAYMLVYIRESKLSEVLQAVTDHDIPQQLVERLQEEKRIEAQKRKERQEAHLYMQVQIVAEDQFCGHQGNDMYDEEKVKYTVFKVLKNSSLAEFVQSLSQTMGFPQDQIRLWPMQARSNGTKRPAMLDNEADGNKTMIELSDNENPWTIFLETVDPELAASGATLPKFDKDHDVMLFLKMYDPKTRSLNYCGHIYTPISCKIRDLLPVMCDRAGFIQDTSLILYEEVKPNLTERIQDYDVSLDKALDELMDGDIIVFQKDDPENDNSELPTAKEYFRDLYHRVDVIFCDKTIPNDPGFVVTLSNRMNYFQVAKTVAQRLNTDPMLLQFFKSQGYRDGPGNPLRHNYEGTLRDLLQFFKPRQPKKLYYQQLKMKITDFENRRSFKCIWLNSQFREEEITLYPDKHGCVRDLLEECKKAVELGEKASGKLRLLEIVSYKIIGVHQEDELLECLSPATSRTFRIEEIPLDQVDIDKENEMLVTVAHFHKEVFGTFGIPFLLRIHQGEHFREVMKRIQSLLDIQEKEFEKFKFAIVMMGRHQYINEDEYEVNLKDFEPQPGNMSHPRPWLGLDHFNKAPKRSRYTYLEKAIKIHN
Sequence of Ubiquitin carboxyl-terminal hydrolase 9X (Homo sapiens) (Q93008 whole entry): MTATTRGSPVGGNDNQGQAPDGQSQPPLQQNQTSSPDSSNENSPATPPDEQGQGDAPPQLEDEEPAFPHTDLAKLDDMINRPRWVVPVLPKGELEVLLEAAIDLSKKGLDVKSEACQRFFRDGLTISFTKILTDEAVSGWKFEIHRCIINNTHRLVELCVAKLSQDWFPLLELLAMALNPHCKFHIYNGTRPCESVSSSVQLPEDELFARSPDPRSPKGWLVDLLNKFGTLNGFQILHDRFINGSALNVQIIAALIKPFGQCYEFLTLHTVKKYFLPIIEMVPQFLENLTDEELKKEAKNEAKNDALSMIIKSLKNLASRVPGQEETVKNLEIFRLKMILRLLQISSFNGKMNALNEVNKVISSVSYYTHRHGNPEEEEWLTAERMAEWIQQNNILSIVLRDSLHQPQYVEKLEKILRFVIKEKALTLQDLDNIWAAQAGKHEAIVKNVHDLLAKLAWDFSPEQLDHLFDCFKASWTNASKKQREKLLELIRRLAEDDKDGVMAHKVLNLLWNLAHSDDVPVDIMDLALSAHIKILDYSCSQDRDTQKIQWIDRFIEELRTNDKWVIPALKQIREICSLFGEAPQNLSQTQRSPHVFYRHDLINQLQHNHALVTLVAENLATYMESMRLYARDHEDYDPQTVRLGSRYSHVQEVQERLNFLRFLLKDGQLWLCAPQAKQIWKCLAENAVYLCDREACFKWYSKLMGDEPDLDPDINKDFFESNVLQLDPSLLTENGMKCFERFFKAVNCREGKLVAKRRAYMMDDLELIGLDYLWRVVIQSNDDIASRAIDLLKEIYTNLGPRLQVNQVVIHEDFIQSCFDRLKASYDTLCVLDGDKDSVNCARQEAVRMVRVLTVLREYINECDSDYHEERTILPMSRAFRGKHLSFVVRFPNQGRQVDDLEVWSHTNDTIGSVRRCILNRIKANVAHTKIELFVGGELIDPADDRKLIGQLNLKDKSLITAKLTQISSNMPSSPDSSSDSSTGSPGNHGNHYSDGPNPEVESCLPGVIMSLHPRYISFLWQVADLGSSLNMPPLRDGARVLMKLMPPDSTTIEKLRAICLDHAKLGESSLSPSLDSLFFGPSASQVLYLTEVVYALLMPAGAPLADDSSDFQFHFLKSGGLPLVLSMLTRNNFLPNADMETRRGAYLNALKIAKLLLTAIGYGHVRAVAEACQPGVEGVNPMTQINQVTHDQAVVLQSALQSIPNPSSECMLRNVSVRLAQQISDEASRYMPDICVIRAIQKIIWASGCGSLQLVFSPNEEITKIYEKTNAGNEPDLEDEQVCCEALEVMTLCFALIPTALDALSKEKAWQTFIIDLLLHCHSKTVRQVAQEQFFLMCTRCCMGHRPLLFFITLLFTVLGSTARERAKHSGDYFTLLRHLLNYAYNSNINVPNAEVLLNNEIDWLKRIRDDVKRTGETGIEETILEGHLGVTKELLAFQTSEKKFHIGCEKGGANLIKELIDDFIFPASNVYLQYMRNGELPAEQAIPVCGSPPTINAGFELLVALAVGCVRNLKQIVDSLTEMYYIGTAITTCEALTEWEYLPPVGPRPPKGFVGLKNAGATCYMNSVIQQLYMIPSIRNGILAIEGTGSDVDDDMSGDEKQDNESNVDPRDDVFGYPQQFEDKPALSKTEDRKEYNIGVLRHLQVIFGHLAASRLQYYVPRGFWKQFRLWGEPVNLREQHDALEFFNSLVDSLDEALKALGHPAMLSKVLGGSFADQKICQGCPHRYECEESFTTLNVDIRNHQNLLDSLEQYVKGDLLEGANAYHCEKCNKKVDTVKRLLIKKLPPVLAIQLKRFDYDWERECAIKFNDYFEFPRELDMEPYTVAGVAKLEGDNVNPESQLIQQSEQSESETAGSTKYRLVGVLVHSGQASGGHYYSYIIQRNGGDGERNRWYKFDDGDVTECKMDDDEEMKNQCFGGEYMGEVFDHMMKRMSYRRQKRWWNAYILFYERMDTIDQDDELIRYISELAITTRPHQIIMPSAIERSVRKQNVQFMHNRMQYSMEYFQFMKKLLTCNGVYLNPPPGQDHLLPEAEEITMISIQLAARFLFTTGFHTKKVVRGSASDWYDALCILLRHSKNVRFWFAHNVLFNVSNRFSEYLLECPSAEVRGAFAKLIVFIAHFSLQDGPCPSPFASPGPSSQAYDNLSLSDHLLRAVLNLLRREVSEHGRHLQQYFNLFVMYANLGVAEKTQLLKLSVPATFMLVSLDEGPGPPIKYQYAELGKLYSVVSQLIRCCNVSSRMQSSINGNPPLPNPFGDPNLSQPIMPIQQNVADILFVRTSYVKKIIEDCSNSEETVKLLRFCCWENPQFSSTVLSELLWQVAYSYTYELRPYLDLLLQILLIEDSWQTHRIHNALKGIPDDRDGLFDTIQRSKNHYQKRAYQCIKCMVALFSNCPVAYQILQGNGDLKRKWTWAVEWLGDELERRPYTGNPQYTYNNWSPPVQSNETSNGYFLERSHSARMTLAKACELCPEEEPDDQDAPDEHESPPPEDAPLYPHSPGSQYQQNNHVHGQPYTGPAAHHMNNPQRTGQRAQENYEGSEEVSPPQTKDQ

The ΔTm is the shift of the melting midpoint relative to a reference. Regarding `COc1ccc(-n2ccc3c(=O)n(CC4(O)CCN(C(=O)C[C@@H](C)c5ccccc5)CC4)cnc32)cc1OC`, the inhibition result in experiment [1] and in experiment [2] was “inactive” in each case. For the same molecule, the inhibition entry in experiment [3], in experiment [5] and in experiment [6] was “Dose-Dependent Effect” in each case. Besides, the ΔTm in experiment [4] was determined as 3.35 °C.

Values taken from ChEMBL document CHEMBL5614397, “Discovery of pyrrolo[2,3-d]pyrimidin-4-one derivative YCH3124 as a potent USP7 inhibitor for cancer therapy” (Eur J Med Chem, 2024).
